Values of other authors, collected in patent US8273780B2, “Polycyclic antagonists of lysophosphatidic acid receptors” (Amira Pharmaceuticals, Inc., priority 2009, dated 2012).

Experiments:
[1] = tested on: highly peritoneal metastatic pancreatic cancer cell line; conditions: LPA-induced and ascites-induced; cited from earlier work
[2] = tested on: pancreatic cancer cell lines; conditions: in response to LPA and peritoneal fluid (ascites) from pancreatic cancer patients; cited from earlier work
UUO mice = conditions: in LPA1 (−/−) mice renal fibrosis was significantly attenuated; cited from earlier work

In the case of `Cc1noc(-c2ccc(CSCCC(=O)O)cc2)c1NC(=O)OC(C)c1ccccc1Cl` (stereo not drawn) [Ki16425], the invasion activity [1] is given as “blocked”, the in vitro migration [2] is given as “effectively blocked” and the “development of renal fibrosis” value (UUO mice) is given as “closely resembled the LPA1 (−/−) mice”.
